In experiment [1] the test system is mice. Kind of experiment: Forced swimming test in mice (FST). The format is in vivo. As to conditions: Mus musculus, 0.5 h, 30ip, 30 min after administration, vs control group, read-out: Reduction % at 30ip (duration of immobility). As to the method: Forced Swimming Test in Mice (FST)
The Forced swimming test is an animal model based on the rodent's behavioral repertoire for screening drugs with potential antidepressant activity. As in several other models used for this goal, an uncontrollable stress stimulus produces behavioral changes that are sensitive to antidepressant treatment.
The mice were intraperitoneally treated with the test compound with an injection volume of […]. The group treated with 30% PEG400 served as a control group. Thirty minutes following administration, mice were individually forced to swim in a transparent glass vessel (14 cm high, 11.5 cm in diameter) filled with 10 cm of water at 25° C. The total duration of immobility (second) was measured during the last 4 minutes of a single 6-min test session. Mice were considered immobile when they made no further attempts to escape other than the movements necessary to keep their heads above the water. The potent ability of the compounds was determined as percent value of reduction in the duration of immobility comparing to the control group.

For experiment [2], the target named is T1, human recombinant dopamine transporter (Homo sapiens, UniProt Q01959).
T1 construct: expressed in transfected cells; host or cells: CHO-K1
Kind of experiment: Dopamine transporter reuptake inhibition assay. As to conditions: 100 nM; CHO-K1 cells with human dopamine transporter; [3H]Dopamine uptake; read-out: Inhibition % at 100 nM DA reuptake. Format: cell-based. As to the method:
Dopamine Transporter Reuptake Inhibition Assay
The assay followed the method modified from Pristupa Z. B. et al., Mol. Pharmacol., 1994, p 125˜135.
CHO-K1 cells with human recombinant dopamine transporter were plated. Test compounds were pre-incubated with cells (4×10^5/ml) in modified Tris-HEPES buffer pH 7.1 for 20 minutes at 25° C. and then they were incubated for additional 10 minutes after 50 nM of [^3H]Dopamine was added. A lysate is obtained from solubilized cells and counted to determine [^3H]Dopamine uptake. Reduction of [^3H]Dopamine uptake by 50 percent or more (≧50%) relative to 10 μM nomifensine indicates significant inhibitory activity. Compounds were tested at 10, 1, 0.1, 0.01 and 0.001 μM for IC50s.

The target of experiment [3] is T2, human recombinant norepinephrine transporter (Homo sapiens, UniProt P23975).
T2 construct: expressed in transfected cells; host or cells: MDCK
In words: Norepinephrine transporter reuptake inhibition assay. The format is cell-based. Particulars: 100 nM; MDCK cells with human norepinephrine transporter; [3H]Norepinephrine uptake; read-out: Inhibition % at 100 nM NE reuptake. How it is done: Norepinephrine Transporter Reuptake Inhibition Assay
Norepinephrine transporter reuptake inhibition assay used the method described by Galli A. et al., J Exp Biol., 1995, 198, p 2197˜2212.
MDCK cells with stably expressed human recombinant norepinephrine transporter were plated one day. Test compounds were pre-incubated with cells (2×10^5/ml) in modified Tris-HEPES buffer pH 7.1 for 20 minutes at 25° C. and then they were incubated for additional 10 minutes after 25 nM of [^3H]Norepinephrine was added. A lysate was obtained from solubilized cells and the filtered lysate was counted to determine [^3H]Norepinephrine uptake. Reduction of [^3H]Norepinephrine uptake by 50 percent or more (≧50%) relative to 10 μM desipramine indicates significant inhibitory activity. Compounds were screened at 10, 1, 0.1, 0.01 and 0.001 μM to determine their IC50s.

Experiment [4] has as its system mice. In words: Marble burying test. The format is in vivo. As to conditions: 30ip, 30 min after treatment, vs control group. The source says: The Marble burying test is a screening tool for putative anxiolytics. In this test, control mice naturally bury glass marbles in the cage bedding and the administration of anxiolytic compounds, including Diazepam, reduces the number of buried marbles. Positive compounds in the marble burying test including selective serotonin reuptake inhibitor may be especially beneficial to obsessive-compulsive disorder.
A group of mice was intraperitoneally treated with test compound dissolved in 30% PEG400 with an injection volume of 10 ml/kg. The group treated with only 30% PEG400 served as a control group. Thirty minutes after the treatment, the animals were individually placed in a polycarbonate cage which was same as used for animal housing with an open top located within a quiet room. Each cage consisted of ⅛ inch corn bedding 5 cm deep. Twenty four clean glass marbles (15 mm diameter) were evenly spaced in four rows of six on top of the bedding. Each mouse was left in the cage for 30 minutes and the number of marbles buried (buried more than ½ or ⅔) was counted. The potent ability of the compounds was determined as percent value of reduction in the number of marbles buried comparing to the control group.

The target in experiment [5] is T3, human serotonin transporter (Homo sapiens, UniProt P31645).
T3 construct: expressed in transfected cells; host or cells: HEK-293
In words: Serotonin transporter reuptake inhibition assay. As to conditions: HEK293; 100 nM; HEK-293 cells with human serotonin transporter; [3H]Serotonin uptake; read-out: Inhibition % at 100 nM 5-HT reuptake. Format: cell-based. How it is done:
Serotonin Transporter Reuptake Inhibition Assay
The method to test the ability of compounds to inhibit transporters from reuptake of serotonin followed Gu H. et al., J Biol. Chem., 1994, 269, p […].
The recombinant HEK-293 cells with human serotonin transporter were plated. Test compounds were pre-incubated with cells (2×10^5/ml) in modified Tris-HEPES buffer pH 7.1 for 20 minutes at 25° C. and then they were incubated for additional 10 minutes after 65 nM of [^3H]Serotonin was added. Bound cells were filtered and counted to determine [^3H]Serotonin uptake. Reduction of [^3H]Serotonin uptake by 50 percent or more (≧50%) relative to 10 μM fluoxetine indicates significant inhibitory activity. Compounds were screened at 10, 1, 0.1, 0.01 and 0.001 μM for IC50s.

For experiment [6], the system named is mice. In words: Acetic acid induced writhing test (AA writhing test). The format is in vivo. Particulars: 0.8% acetic acid i.p. 30 min later, vs control group. The source says:
Specially the results of Marble burying test (MB) in mice as noted in Table 3 show the compounds of the invention are related to the treatment of anxiety. Acetic Acid Induced Writhing Test (AA Writhing Test)
The Acetic acid-induced writhing test is a well-established nociceptive test using a chemical stimulus. Although several animal models of nociceptive tests have been developed to examine and compare the anti-nociceptive effects of different drugs, the anti-nociceptive effects of antidepressants appear to be test-dependent. Indeed, the acetic acid-induced writhing test is more sensitive to antidepressants than other tests using thermal, mechanical or electrical stimuli.
The animals were subcutaneously treated with the test compound with an injection volume of 10 ml/kg. The group treated with 30% PEG400 or saline served as a control group. Thirty minutes later, the mice were intraperitoneally treated with 0.8% (v/v) acetic acid. Each mouse was then placed in a cage for individual observation. The writhing numbers for 10 minutes were counted. The writhe is operationally defined as a contraction of the abdomen followed by stretching of the hind limbs. The potent ability of the compounds was determined as percent value of reduction in the number of writhing comparing to the control group.
(In writhing tests, fewer writhes than in controls are read as antinociception.)

T3 sequence (P31645 whole entry): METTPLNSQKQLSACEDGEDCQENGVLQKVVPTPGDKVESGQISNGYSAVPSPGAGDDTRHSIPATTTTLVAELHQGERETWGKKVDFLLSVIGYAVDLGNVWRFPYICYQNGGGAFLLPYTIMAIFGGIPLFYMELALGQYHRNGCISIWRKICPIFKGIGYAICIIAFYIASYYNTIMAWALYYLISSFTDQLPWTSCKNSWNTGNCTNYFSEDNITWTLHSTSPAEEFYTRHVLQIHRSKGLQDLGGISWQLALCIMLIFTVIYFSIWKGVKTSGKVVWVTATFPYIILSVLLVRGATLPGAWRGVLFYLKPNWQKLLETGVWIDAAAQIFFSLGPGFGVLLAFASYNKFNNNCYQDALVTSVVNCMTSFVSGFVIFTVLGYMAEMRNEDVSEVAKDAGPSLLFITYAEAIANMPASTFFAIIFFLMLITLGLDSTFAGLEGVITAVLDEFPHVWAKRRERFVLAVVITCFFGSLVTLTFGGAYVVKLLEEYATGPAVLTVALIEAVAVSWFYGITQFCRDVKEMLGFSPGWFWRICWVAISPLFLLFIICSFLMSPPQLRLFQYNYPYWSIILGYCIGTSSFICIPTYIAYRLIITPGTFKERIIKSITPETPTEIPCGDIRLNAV
T2 sequence (P23975 whole entry): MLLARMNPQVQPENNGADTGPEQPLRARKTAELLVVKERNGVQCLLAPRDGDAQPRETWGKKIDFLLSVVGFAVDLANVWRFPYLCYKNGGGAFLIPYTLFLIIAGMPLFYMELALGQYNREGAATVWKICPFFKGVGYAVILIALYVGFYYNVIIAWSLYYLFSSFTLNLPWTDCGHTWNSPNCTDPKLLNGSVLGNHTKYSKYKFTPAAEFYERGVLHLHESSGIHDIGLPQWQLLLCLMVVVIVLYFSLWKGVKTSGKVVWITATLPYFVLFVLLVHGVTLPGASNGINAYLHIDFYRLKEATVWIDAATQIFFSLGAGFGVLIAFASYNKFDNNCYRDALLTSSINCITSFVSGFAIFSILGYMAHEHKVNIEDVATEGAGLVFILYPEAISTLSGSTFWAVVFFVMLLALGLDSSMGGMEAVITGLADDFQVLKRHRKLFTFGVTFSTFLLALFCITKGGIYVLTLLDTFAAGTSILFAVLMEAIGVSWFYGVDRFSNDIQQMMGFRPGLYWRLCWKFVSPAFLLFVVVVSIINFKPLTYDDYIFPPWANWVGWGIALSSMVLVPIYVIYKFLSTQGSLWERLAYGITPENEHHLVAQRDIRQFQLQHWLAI
T1 sequence (Q01959 whole entry): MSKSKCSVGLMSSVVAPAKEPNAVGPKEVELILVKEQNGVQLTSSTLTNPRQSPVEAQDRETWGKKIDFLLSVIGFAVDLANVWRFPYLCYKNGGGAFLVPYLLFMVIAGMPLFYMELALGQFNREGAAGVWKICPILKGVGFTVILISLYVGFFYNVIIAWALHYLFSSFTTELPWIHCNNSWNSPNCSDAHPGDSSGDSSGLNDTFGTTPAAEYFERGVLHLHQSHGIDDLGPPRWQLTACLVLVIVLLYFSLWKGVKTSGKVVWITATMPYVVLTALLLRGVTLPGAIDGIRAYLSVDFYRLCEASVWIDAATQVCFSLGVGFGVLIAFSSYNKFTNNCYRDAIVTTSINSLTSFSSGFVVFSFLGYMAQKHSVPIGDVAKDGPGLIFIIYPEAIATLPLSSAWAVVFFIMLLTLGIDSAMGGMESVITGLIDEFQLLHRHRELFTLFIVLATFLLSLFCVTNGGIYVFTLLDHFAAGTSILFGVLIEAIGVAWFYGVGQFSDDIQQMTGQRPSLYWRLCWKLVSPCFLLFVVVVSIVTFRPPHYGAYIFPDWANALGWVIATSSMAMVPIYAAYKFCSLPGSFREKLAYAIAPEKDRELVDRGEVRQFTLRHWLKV

For orientation: inhibition means the relative decrease from the control value, in per cent. In the case of `Clc1ccc([C@@H]([C@@H]2CCCNC2)n2ncnn2)cc1Cl` [Example 15, (3R)-3-[(R)-(3,4-dichlorophenyl)(2H-tetrazol-2-yl)methyl]piperidine], in experiment [1], the inhibition in vivo at 30 mg/kg was determined as 96.5%. The inhibition at 0.1 µM in experiment [2] amounted to 99%; in experiment [3], 98%; in experiment [5], 75%. In experiment [4], the “Reduction % at 30ip (number of marbles buried)” value stood at 75.3%. Besides, in experiment [6], the “Reduction % at 30sc (number of writhing)” value is recorded as 55.3%.
As for `Cc1ccc2cc([C@@H]([C@H]3CCCNC3)n3ncnn3)ccc2c1` [Example 86, (3S)-3-[(R)-(6-methylnaphthalen-2-yl)(2H-tetrazol-2-yl)methyl]piperidine], the inhibition in vivo at 30 mg/kg in experiment [1] was 13.4%. For the same compound, the inhibition at 0.1 µM in experiment [2] was 35%; in experiment [3] it was -1%; in experiment [5] it was 93%.
With `c1ccc(-c2nnn([C@H](c3ccc4ccccc4c3)[C@H]3CCCNC3)n2)cc1` [Example 75, (3S)-3-[(S)-naphthalen-2-yl-(5-phenyl-tetrazol-2-yl)methyl]piperidine], the inhibition at 0.1 µM is 41% in experiment [2], -1% in experiment [3] and 86% in experiment [5].
In the case of `c1ccc2cc([C@H]([C@H]3CCCNC3)n3nccn3)ccc2c1` [Example 14, (3S)-3-[(S)-naphthalen-2-yl(2H-1,2,3-triazol-2-yl)methyl]piperidine], the inhibition in vivo at 30 mg/kg in experiment [1] was determined as 6.4%. Further, the values for the inhibition at 0.1 µM in experiment [2], in experiment [3] and in experiment [5] were 52%, 70% and 76%, respectively.
On to `c1ccc2cc([C@@H]([C@@H]3CCCNC3)n3nccn3)ccc2c1` [Example 13, (3R)-3-[(R)-naphthalen-2-yl(2H-1,2,3-triazol-2-yl)methyl]piperidine], for which the inhibition in vivo at 30 mg/kg in experiment [1] was 9.4%. For the same compound, the inhibition at 0.1 µM amounted to 63% in experiment [2], 87% in experiment [3] and 84% in experiment [5]. Moreover, the “Reduction % at 30sc (number of writhing)” value in experiment [6] stood at 71.8%.
Regarding `Clc1ccc2cc([C@@H]([C@H]3CCCNC3)n3ncnn3)ccc2c1` [Example 70, (3S)-3-[(R)-(6-chloronaphthalen-2-yl)(2H-tetrazol-2-yl)methyl]piperidine], the inhibition at 0.1 µM in experiment [2] turned out to be 3%; in experiment [3] it was 14%; in experiment [5], 95%.
On to `Fc1ccc2cc([C@H]([C@@H]3CCCNC3)n3ncnn3)ccc2c1` [Example 84, (3R)-3-[(S)-(6-fluoronaphthalen-2-yl)(2H-tetrazol-2-yl)methyl]piperidine], for which the figures for the inhibition at 0.1 µM in experiment [2], in experiment [3] and in experiment [5] were -4%, 5% and 44%, respectively.
As for `COc1ccc2cc([C@H]([C@H]3CCCNC3)n3ncnn3)ccc2c1` [Example 35, (3S)-3-[(S)-(6-methoxynaphthalen-2-yl)(2H-tetrazol-2-yl)methyl]piperidine], the inhibition in vivo at 30 mg/kg in experiment [1] came to 32.7%. Besides, the values for the inhibition at 0.1 µM in experiment [2], in experiment [3] and in experiment [5] were 78%, 72% and 76%, respectively.
For `Cc1nnn([C@H](c2ccc3ccccc3c2)[C@H]2CCCNC2)n1` [Example 10, (3S)-3-[(S)-(5-methyl-2H-tetrazol-2-yl)(naphthalen-2-yl)methyl]piperidine], the inhibition at 0.1 µM in experiment [2] came to 93%; in experiment [3], 87%; in experiment [5], 93%.
Turning to `c1ccc2cc([C@H]([C@H]3CCCNC3)n3nc4ccccc4n3)ccc2c1` [Example 80, 2-{(S)-naphthalen-2-yl[(3S)-piperidin-3-yl]methyl}-2H-benzotriazole], the inhibition at 0.1 µM stood at 84% in experiment [2], 55% in experiment [3] and 59% in experiment [5].
In the same order, the values of `c1ccc2cc([C@H]([C@H]3CCCNC3)n3cncn3)ccc2c1` [Example 90, (3S)-3-[(S)-naphthalen-2-yl(1H-1,2,4-triazol-1-yl)methyl]piperidine] are 44%, 39% and 87%.
As to `Clc1ccc2cc([C@@H]([C@@H]3CCCNC3)n3ncnn3)ccc2c1` [Example 67, (3R)-3-[(R)-(6-chloronaphthalen-2-yl)(2H-tetrazol-2-yl)methyl]piperidine], in experiment [1], the inhibition in vivo at 30 mg/kg amounted to 2.4%. Also, the figures for the inhibition at 0.1 µM in experiment [2], in experiment [3] and in experiment [5] were 81%, 90% and 97%, respectively.
The matching figures for `Fc1ccc2cc([C@@H]([C@H]3CCCNC3)n3ncnn3)ccc2c1` [Example 72, (3S)-3-[(R)-(6-fluoronaphthalen-2-yl)(2H-tetrazol-2-yl)methyl]piperidine]: 46.7%, 2%, 6% and 86%.
Take `Cc1ccc2cc([C@H]([C@H]3CCCNC3)n3ncnn3)ccc2c1` [Example 85, (3S)-3-[(S)-(6-methylnaphthalen-2-yl)(2H-tetrazol-2-yl)methyl]piperidine]: the inhibition in vivo at 30 mg/kg in experiment [1] came out at 11.3%. For the same compound, the figures for the inhibition at 0.1 µM in experiment [2], in experiment [3] and in experiment [5] were 81%, 74% and 94%, respectively. In addition, the “Reduction % (number of writhing) at 10sc” value in experiment [6] was 46.4% (at 10sc).
The matching figures for `Clc1ccc2cc([C@H]([C@H]3CCCNC3)n3ncnn3)ccc2c1` [Example 68, (3S)-3-[(S)-(6-chloronaphthalen-2-yl)(2H-tetrazol-2-yl)methyl]piperidine]: 7.1%, 63%, 57%, 96% and 48.1% (at 10sc).
